Data: patent US6489362B1, “Carnitine supplemented diet to prevent or alleviate ascites in broiler type poultry” (The Board of Regents for Oklahoma State University, priority 1999, dated 2002)

Tests used:
[1] = tested on: Male Cobb-500 broiler chicks; assay: Carnitine supplemented basal diets fed to broiler chicks in respiratory chambers to 14 days of age; format: in vivo, broiler type chickens; settings: carnitine 200 ppm in basal diet; for Right ventricular weight (RV) / Ascites heart ratio (AHR), ratio of right ventricular mass to heart weight: 14 days of age; for Right ventricular weight (RV): control 0 ppm 0.21 ± 0.005; for Ascites heart ratio (AHR), ratio of right ventricular mass to heart weight: control 0 ppm 11.45 ± 0.24; for Hematocrit HCT: blood at week 2, control 0 ppm 36.11 ± 0.26
Protocol: (§1) Materials and Methods: Male Cobb-500 broiler chicks (obtained from Cobb Vantress of Siloam Springs, Ark.) were used. The chicks were divided into 24 groups of […] chicks and randomly assigned to 60 open circuit respiratory chambers in three separate rooms. The chambers were housed in 3 thermostatically controlled rooms with 24 hour fluorescent light. Two levels of carnitine (0,200 ppm) were added to the basal diets (Table 1) and examined at two oxygen levels (17 and 20.6%).
(§2) Feed and drinking water were provided for ad-libitum consumption. Chamber temperature was maintained at 30° C. the first 5 days of age and at 27.8° C. thereafter. Chambers were checked twice daily for bird mortality. Body weights of each chick were obtained on day 0, 7 and 14. Feed consumption was determined on a chamber basis at the end of 1 and 2 weeks and feed efficiency calculated. Oxygen consumption and CO2 production was recorded continuously on all chambers. Five birds at the start of the experiment were sacrificed for determination of initial composition. At the end of the experiment (Week 2) blood samples were taken from the wing vain of all birds for hematocrit determination. Heart weight and right ventricular mass of each bird were measured and the carcass saved for determination of lean and fat tissue gain using a Hologic densitometer.
Breathing Air Supply and Analysis: Compressed dried air (7% relative humidity (RH), 20.6% O2) was delivered to chicks in the chamber via polyethylene tubes. It was necessary to provide low RH air to the chick chamber in order to hold the chamber at RH below 75%. The concentration of O2 and CO2 in air exiting each bird's chamber was monitored each day using Ametek oxygen (accuracy±0.02%) and carbon dioxide (accuracy±.03%) analyzers, respectively.
Statistical Analysis: Data were analyzed using the General Linear Model procedure of SAS (SAS, 1985). When a significant F statistic was noted by ANOVA, treatment means were compared using least square analysis variance.

broilers = assay: Further examples: hematocrit of broilers fed carnitine supplemented diets; format: in vivo, broiler type chickens; settings: for Hematocrit HCT: control 0: 33.40
Protocol: as §1, with “Two levels of carnitine (0,200 ppm) were added to the basal diets (Table 1) and examined at two oxygen levels (17 and 20.6%).” left out
as §2

growing broilers = settings: cited from earlier work

C[N+](C)(C)CC(O)CC(=O)[O-] (stereo not drawn) [Carnitine, 3-hydroxy-4-N-trimethylaminobutyric acid]
Right ventricular weight (RV) [1]: 0.20 ± 0.006 g | Right ventricular weight (RV) ([1]; listed as carnitine): significantly decreased | Ascites heart ratio (AHR), ratio of right ventricular mass to heart weight [1]: 10.57 ± 0.26% | Ascites heart ratio (AHR), ratio of right ventricular mass to heart weight ([1]; listed as carnitine): significantly decreased | Hematocrit HCT [1]: 35.41 ± 0.24% | Hematocrit HCT ([1]; listed as carnitine): significantly decreased | Body weight gain (Gain) ([1]; broilers to 14 days of age): 265 ± 3.1 g/b | Gain:feed ratio ([1]; broilers to 14 days of age): 0.76 ± 0.0 | Hematocrit HCT (broilers; carnitine level 12.5 (ppm) in diet): 32.11% | Hematocrit HCT (broilers; carnitine level 50 (ppm) in diet): 31.99% | Hematocrit HCT (broilers; carnitine level 100 (ppm) in diet): 30.60% | Hematocrit values, change versus unsupplemented diet (broilers; diets at 12.5, 50 and 100 ppm carnitine): beneficial and significant lowering | Effect on feed intake, body and abdominal fat weight, carcass or liver lipid levels (growing broilers; carnitine in poultry diet, growing broilers (Cartwright 1986)): no beneficial effect | Ethanol metabolism in broilers (growing broilers; dietary carnitine (Smith et al. 1992)): retard ethanol metabolism | Hatchability of eggs (growing broilers; dietary carnitine (U.S. Pat. No. 5,362,753)): increase the hatchability of eggs
